In patent US10711230B2, “N-acyl proline derivatives as food flavoring compounds” (Givaudan S.A., priority 2012, dated 2020):

Assays:
[1] = Expert taster evaluation in a mango juice drink; conditions: 1 ppm in base (water, 8% sucrose, 0.1% citric acid, 1% clear mango juice, mango flavour 0.05%); base alone: fruity mango
Method: (§1) Samples were evaluated by expert tasters. Tasters were asked to describe the samples focusing on authentic taste, mouthfeel, fullness, salty-ness, salivation, umami, sweetness, juiciness, richness, long lastingness and fattiness.
Comparison in a Mango Juice Drink
Base is water, 8% sucrose, 0.1% citric acid, 1% clear mango juice, proprietary mango flavour @ 0.05%

[2] = Expert taster evaluation in beef bouillon; conditions: 1 ppm in base (Maggi beef bouillon, 1 tablet in 500 ml hot water); base alone: salty, umami, powdery
Method: as §1
Base is Maggi beef bouillon 1 tablet in 500 ml of hot water

[3] = Expert taster evaluation in orange beverage; conditions: 1 ppm in base (water, 7% sugar, 0.1% citric acid, orange flavour 0.06%); base alone: orange, fruity, slightly candy
Method: as §1
Base is water, 7% sugar, 0.1% citric acid, proprietary orange flavour @ 0.06%.

[4] = Expert taster evaluation in lemon beverage; conditions: 1 ppm in base (water, 7% sucrose, 0.15% citric acid, lemon flavor), base alone: floral, citral
Method: as §1
Basis water, 7% sucrose, 0.15% citric acid, proprietary lemon flavor

| SMILES | taste description in mango juice drink [1] | taste description in bouillon [2] | taste description in orange beverage [3] | taste description in lemon beverage [4] |
| --- | --- | --- | --- | --- |
| CCCCCCCCCCCCCCCC(=O)N1CCCC1C(=O)O (stereo not shown) [C16:0-pro, N-palmitoyl-Pro] | overripe, orange like, long lasting after taste | more salty, full, darker, more meat-like |  |  |
| CCCCC/C=C\C/C=C\CCCCCCCC(=O)N1CCC[C@H]1C(=O)O [C18:2-pro, N-linoleoyl-Pro] |  |  | very juicy, authentic orange | very juicy, more citral like, very authentic |
